Measured values from PMC5177656, “Cytosolic Triosephosphate Isomerase from Arabidopsis thaliana Is Reversibly Modified by Glutathione on Cysteines 127 and 218” (Frontiers in Plant Science, 2016).

Assays:
GRXC2 = GRXC2 (Arabidopsis thaliana, UniProt Q9FNE2); experiment: GSH-disulfide transhydrogenase assay coupled to glutathione reductase, NADPH at […] nm; type: biochemical; settings: 0.7 mM HED, 1 mM GSH, 0.2 mM NADPH, pH 8.0, 30°C
GRXC1 = GRXC1 (Arabidopsis thaliana, UniProt Q8L8T2); experiment: as above; type: biochemical; settings: 0.7 mM HED, 1 mM GSH, 0.2 mM NADPH, pH 8.0, 30°C
Sequence of GRXC1 (Q8L8T2 whole entry): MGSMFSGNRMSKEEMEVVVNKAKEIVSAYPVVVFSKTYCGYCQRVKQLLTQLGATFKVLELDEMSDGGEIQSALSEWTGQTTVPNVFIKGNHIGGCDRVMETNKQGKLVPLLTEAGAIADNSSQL

Sequence of GRXC2 (Q9FNE2 whole entry): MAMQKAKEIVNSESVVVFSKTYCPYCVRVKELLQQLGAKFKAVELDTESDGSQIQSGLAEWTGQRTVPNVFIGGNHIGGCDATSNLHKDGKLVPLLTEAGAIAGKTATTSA

Compound: OCCSSCCO [HED]
- GSH-disulfide transhydrogenase assay coupled to glutathione reductase, NADPH at (GRXC2): specific activities of recombinant GRXs were measured using the artificial substrate HED
- GSH-disulfide transhydrogenase assay coupled to glutathione reductase, NADPH at (GRXC1): specific activities of recombinant GRXs were measured using the artificial substrate HED
